# Measurements taken from patent publication US11643416B2, “Substituted 1′,2′-dihydro-3′H-spiro[cyclohexane-1,4′-pyrimido[5′,4′:4,5]pyrrolo[2,1-c][1,2,4]triazin]-3′-ones as cyclin-dependent kinase inhibitors” (G1 Therapeutics, Inc., priority 2020, dated 2023).
# Biological target: CDK5 (Homo sapiens (Human), UniProt Q00535)
# Assay: CDK5 kinase assay (Nanosyn, Caliper microfluidic)
# Assay type: biochemical
# Settings: ATP at Km; 12-point dose-response
# Protocol: Selected compounds disclosed herein were tested in kinase assays by Nanosyn (Santa Clara, Calif.) to determine their inhibitory effect on these CDKs. The assays were performed using microfluidic kinase detection technology (Caliper Assay Platform). The compounds were tested in 12-point dose-response format in singlicate at Km for ATP.
# Sequence of CDK5 (Q00535 whole entry): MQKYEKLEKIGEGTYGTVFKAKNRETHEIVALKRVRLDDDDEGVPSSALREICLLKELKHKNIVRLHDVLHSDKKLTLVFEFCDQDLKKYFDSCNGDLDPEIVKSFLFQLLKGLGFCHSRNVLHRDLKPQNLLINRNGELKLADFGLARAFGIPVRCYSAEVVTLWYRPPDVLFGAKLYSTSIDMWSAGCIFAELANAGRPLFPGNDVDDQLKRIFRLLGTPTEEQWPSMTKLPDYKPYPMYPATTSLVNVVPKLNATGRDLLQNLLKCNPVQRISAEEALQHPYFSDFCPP
# Sequence of CDK5 (Q15078 whole entry partner): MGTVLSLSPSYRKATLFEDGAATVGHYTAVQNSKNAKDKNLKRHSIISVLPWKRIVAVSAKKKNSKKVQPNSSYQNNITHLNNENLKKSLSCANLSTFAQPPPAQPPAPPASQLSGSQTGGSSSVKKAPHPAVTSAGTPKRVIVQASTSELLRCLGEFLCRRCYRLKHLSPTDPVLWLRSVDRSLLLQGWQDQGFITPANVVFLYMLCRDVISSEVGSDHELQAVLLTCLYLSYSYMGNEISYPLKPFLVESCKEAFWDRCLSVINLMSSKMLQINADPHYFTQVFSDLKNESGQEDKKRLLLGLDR
row,IC50 [nM],Structure (SMILES)
1,15,"CC1C(=O)N(C)c2cc3cnc(Nc4ccc(S(N)(=O)=O)cc4)nc3n2C12CCCCC2 (centres unmarked) [Compound 43, 4-((6′,8′-dimethyl-7′-oxo-7′,8′-dihydro-6′H-spiro[cyclohexane-1,9′-pyrrolo[1,5-a:2,3-d′]dipyrimidin]-2′-yl)amino)benzenesulfonamide]"
2,48,"CC1=NNc2cc3cnc(Nc4ccc(S(N)(=O)=O)cc4)nc3n2C12CCCCC2 [Compound 45, 4-((3′-methyl-1′H-spiro[cyclohexane-1,4′-pyrimido[5′,4′:4,5]pyrrolo[2,1-c][1,2,4]triazin]-7′-yl)amino)benzenesulfonamide]"
3,3,"CN1CCN(C(=O)c2ccc(Nc3ncc4cc5n(c4n3)C3(CCCCC3)CC(=O)N5)cc2)CC1 [Compound 54, 2′-((4-(4-methylpiperazine-1-carbonyl)phenyl)amino)-6′H-spiro[cyclohexane-1,9′-pyrrolo[1,5-a:2,3-d′]dipyrimidin]-7′(8′H)-one]"
4,7,"CN1CCN(S(=O)(=O)c2ccc(Nc3ncc4cc5n(c4n3)C3(CCCCC3)CC(=O)N5)cc2)CC1 [Compound 51, 2′-((4-((4-methylpiperazin-1-yl)sulfonyl)phenyl)amino)-6′H-spiro[cyclohexane-1,9′-pyrrolo[1,5-a:2,3-d′]dipyrimidin]-7′(8′H)-one]"
5,2,"CC1C(=O)Nc2cc3cnc(Nc4ccc(S(N)(=O)=O)cc4)nc3n2C12CCCCC2 (centres unmarked) [Compound 42, 4-((8′-methyl-7′-oxo-7′,8′-dihydro-6′H-spiro[cyclohexane-1,9′-pyrrolo[1,5-a:2,3-d′]dipyrimidin]-2′-yl)amino)benzenesulfonamide]"
6,78,"NC(=O)c1ccc(Nc2ncc3cc4n(c3n2)C2(CCCCC2)C(=O)NN4)cc1 [Compound 63, 4-((3′-oxo-2′,3′-dihydro-1′H-spiro[cyclohexane-1,4′-pyrimido[5′,4′:4,5]pyrrolo[2,1-c][1,2,4]triazin]-7′-yl)amino)benzamide]"
7,6,"CC1C(=O)Nc2cc3cnc(Nc4ccc(S(=O)(=O)N5CCN(C)CC5)cc4)nc3n2C12CCCCC2 (centres unmarked) [Compound 59, 8′-methyl-2′-((4-((4-methylpiperazin-1-yl)sulfonyl)phenyl)amino)-6′H-spiro[cyclohexane-1,9′-pyrrolo[1,5-a:2,3-d′]dipyrimidin]-7′(8′H)-one]"
8,17,"NS(=O)(=O)c1ccc(Nc2ncc3cc4n(c3n2)C2(CCCCC2)C(=O)NN4)cc1 [Compound 3, 4-((3′-oxo-2′,3′-dihydro-1′H-spiro[cyclohexane-1,4′-pyrimido[5′,4′:4,5]pyrrolo[2,1-c][1,2,4]triazin]-7′-yl)amino)benzenesulfonamide]"
9,0.68,"NS(=O)(=O)c1ccc(Nc2ncc3cc4n(c3n2)C2(CCCCC2)C(=O)NC4O)cc1 (centres unmarked) [Compound 1, 4-((6′-hydroxy-8′-oxo-7′,8′-dihydro-6′H-spiro[cyclohexane-1,9′-pyrazino[1′,2′:1,5]pyrrolo[2,3-d]pyrimidin]-2'-yl)amino)benzenesulfonamide]"
10,105,"CN1CCN(S(=O)(=O)c2ccc(Nc3ncc4cc5n(c4n3)C3(CCCCC3)C(=O)NN5)cc2)CC1 [Compound 49, 7′-((4-((4-methylpiperazin-1-yl)sulfonyl)phenyl)amino)-1′,2′-dihydro-3′H-spiro[cyclohexane-1,4′-pyrimido[5′,4′:4,5]pyrrolo[2,1-c][1,2,4]triazin]-3′-one]"
11,71,"CN1CCN(S(=O)(=O)c2ccc(Nc3ncc4cc5n(c4n3)C3(CCCCC3)C(=O)NC5O)cc2)CC1 (centres unmarked) [Compound 50, 6′-hydroxy-2′-((4-((4-methylpiperazin-1-yl)sulfonyl)phenyl)amino)-6′,7′-dihydro-8′H-spiro[cyclohexane-1,9′-pyrazino[1′,2′:1,5]pyrrolo[2,3-d]pyrimidin]-8′-one]"
12,1,"O=C1NCC2(CCCCC2)n2c1cc1cnc(Nc3ccc(C(=O)N4CCNCC4)cc3)nc12 [Compound 55, 2′-((4-(piperazine-1-carbonyl)phenyl)amino)-7′,8′-dihydro-6′H-spiro[cyclohexane-1,9′-pyrazino[1′,2′:1,5]pyrrolo[2,3-d]pyrimidin]-6′-one]"
13,11,"CC1=NN(C)c2cc3cnc(Nc4ccc(S(N)(=O)=O)cc4)nc3n2C12CCCCC2 [Compound 46, 4-((1′,3′-dimethyl-1′H-spiro[cyclohexane-1,4′-pyrimido[5′,4′:4,5]pyrrolo[2,1-c][1,2,4]triazin]-7′-yl)amino)benzenesulfonamide]"
14,65,"CNC(=O)c1ccc(Nc2ncc3cc4n(c3n2)C2(CCCCC2)C(=O)NN4)cc1 [Compound 64, N-methyl-4-((3′-oxo-2′,3′-dihydro-1′H-spiro[cyclohexane-1,4′-pyrimido[5′,4′:4,5]pyrrolo[2,1-c][1,2,4]triazin]-7′-yl)amino)benzamide]"

# More lines, now with the values behind:
row,Structure (SMILES),IC50 [nM]
1,"CN1CCN(C(=O)c2ccc(Nc3ncc4cc5n(c4n3)C3(CCCCC3)C(=O)NN5)cc2)CC1 [Compound 52, 7′-((4-(4-methylpiperazine-1-carbonyl)phenyl)amino)-1′,2′-dihydro-3′H-spiro[cyclohexane-1,4′-pyrimido[5′,4′:4,5]pyrrolo[2,1-c][1,2,4]triazin]-3′-one]",84
2,"CN1NC(=O)C2(CCCCC2)n2c1cc1cnc(Nc3ccc(S(N)(=O)=O)cc3)nc12 [Compound 12, 4-((1′-methyl-3′-oxo-2′,3′-dihydro-1′H-spiro[cyclohexane-1,4′-pyrimido[5′,4′:4,5]pyrrolo[2,1-c][1,2,4]triazin]-7′-yl)amino)benzenesulfonamide]",120
3,"CN1N=CC2(CCCCC2)n2c1cc1cnc(Nc3ccc(S(N)(=O)=O)cc3)nc12 [Compound 5, 4-((1′-methyl-1′H-spiro[cyclohexane-1,4′-pyrimido[5′,4′:4,5]pyrrolo[2,1-c][1,2,4]triazin]-7′-yl)amino)benzenesulfonamide]",30
4,"O=C(c1ccc(Nc2ncc3cc4n(c3n2)C2(CCCCC2)C(=O)NN4)cc1)N1CCOCC1 [Compound 74, 7′-((4-(morpholine-4-carbonyl)phenyl)amino)-1′,2′-dihydro-3′H-spiro[cyclohexane-1,4′-pyrimido[5′,4′:4,5]pyrrolo[2,1-c][1,2,4]triazin]-3′-one]",92
5,"NS(=O)(=O)c1ccc(Nc2ncc3cc4n(c3n2)C2(CCCCC2)C(=O)N[C@@H]4CF)cc1 [Compound 23, (S)-4-((6′-(fluoromethyl)-8′-oxo-7′,8′-dihydro-6′H-spiro[cyclohexane-1,9′-pyrazino[1′2′:1,5]pyrrolo[2,3-d]pyrimidin]-2′-yl)amino)benzenesulfonamide]",12
6,"O=C(c1ccc(Nc2ncc3cc4n(c3n2)C2(CCCCC2)C(=O)NN4)cc1)N1CCNCC1 [Compound 61, 7′-((4-(piperazine-1-carbonyl)phenyl)amino)-1′,2′-dihydro-3′H-spiro[cyclohexane-1,4′-pyrimido[5′,4′:4,5]pyrrolo[2,1-c][1,2,4]triazin]-3′-one]",72
7,"CN(C)C(=O)c1ccc(Nc2ncc3cc4n(c3n2)C2(CCCCC2)C(=O)NN4)cc1 [Compound 62, N,N-dimethyl-4-((3′-oxo-2′,3′-dihydro-1′H-spiro[cyclohexane-1,4′-pyrimido[5′,4′:4,5]pyrrolo[2,1-c][1,2,4]triazin]-7′-yl)amino)benzamide]",131
8,"NS(=O)(=O)c1ccc(Nc2ncc3cc4n(c3n2)C2(CCCCC2)CC(=O)N4)cc1 [Compound 2, 4-((7′-oxo-7′,8′-dihydro-6′H-spiro[cyclohexane-1,9′-pyrrolo[1,5-a:2,3-d′]dipyrimidin]-2′-yl)amino)benzenesulfonamide]",1.4
9,"NS(=O)(=O)c1ccc(Nc2ncc3cc4n(c3n2)C2(C=NN4)CCCCC2)cc1 [Compound 4, 4-((1′H-spiro[cyclohexane-1,4′-pyrimido[5′,4′:4,5]pyrrolo[2,1-c][1,2,4]triazin]-7′-yl)amino)benzenesulfonamide]",6
10,"C[C@@H]1NC(=O)C2(CCCCC2)n2c1cc1cnc(Nc3ccc(S(N)(=O)=O)cc3)nc12 [Compound 19, (S)-4-((6′-methyl-8′-oxo-7′,8′-dihydro-6′H-spiro[cyclohexane-1,9′-pyrazino[1′,2′:1,5]pyrrolo[2,3-d]pyrimidin]-2′-yl)amino)benzenesulfonamide]",50
11,"NS(=O)(=O)c1ccc(Nc2ncc3cc4n(c3n2)C2(CCCCC2)C(=O)N[C@H]4CF)cc1 [Compound 18, (R)-4-((6′-(fluoromethyl)-8′-oxo-7′,8′-dihydro-6′H-spiro[cyclohexane-1,9′-pyrazino[1′,2′:1,5]pyrrolo[2,3-d]pyrimidin]-2′-yl)amino)benzenesulfonamide]",16
12,"CN1CCN(C(=O)c2ccc(Nc3ncc4cc5n(c4n3)C3(CCCCC3)C(=O)NC5O)cc2)CC1 (centres unmarked) [Compound 53, 6′-hydroxy-2′-((4-(4-methylpiperazine-1-carbonyl)phenyl)amino)-6′,7′-dihydro-8′H-spiro[cyclohexane-1,9′-pyrazino[1′,2′:1,5]pyrrolo[2,3-d]pyrimidin]-8′-one]",4
